{
  "source": "paper PMC12794274",
  "about": "“Therapeutic potential of Sheng-Xian-Tang in doxorubicin-induced chronic heart failure by regulation of phenylalanine metabolism disruption” (Chinese Medicine, 2026)",
  "key": {"[1]": {"system": "PAH activity in AML12 cells", "type": "cell-based", "description": "(§1) Serum biochemical parameters including brain natriuretic peptide (BNP), creatine kinase (CK), lactate dehydrogenase (LDH), alanine aminotransferase (ALT), and aspartate aminotransferase (AST) were measured using commercial ELISA kits (Nanjing Jiancheng Bioengineering Institute, Nanjing, China) according to the manufacturer’s instructions. Superoxide dismutase (SOD), and malondialdehyde (MDA) levels in liver and heart tissues were measured using assay kits from Aifang Biotechnology (Changsha, China). Phenylalanine and tyrosine concentrations in the cell were determined using an ELISA kit from Abmart (Shanghai, China).\n(§2) Mouse hepatocellular cell lines (AML12), purchased from the Shanghai Cell Bank of Chinese Academy of Sciences (Shanghai, China), were cultured in Dulbecco’s Modified Eagle Medium (DMEM) supplemented with 10% fetal bovine serum (FBS) and 2 mM L-glutamine and 1% pyruvate and maintained at 37 °C in a […], 5% CO2 incubator. Cells were seeded at a density of 5 × 10^5 cells/well in 6-well plates. […] Cells’ survival rate was detected by Cell Counting Kit-8 (CCK8) Reagents (Thermo Scientific, Singapore)."}, "[2]": {"system": "DOX-induced CHF rats", "assay": "Serum biochemical parameters (BNP, CK, LDH, ALT, AST) by ELISA kits", "type": "in vivo, rat", "settings": "DOX group, experiment I", "description": "as §1, with “manufacturer's” for “manufacturer’s”, “Aifang” left out"}, "[3]": {"system": "phenylalanine metabolism", "assay": "Phenylalanine and tyrosine levels in rat serum, liver and heart tissues (LC/MS)", "type": "in vivo", "settings": "DOX-induced CHF rats, day 39", "description": "Phenylalanine and tyrosine in the different rat bio-samples were analyzed by LC/MS using an Agilent 1290 Ultra high-performance liquid chromatography (UHPLC) and an Agilent 6460 triple-quadrupole tandem mass spectrometer (QQQ-MS) (Agilent Inc, USA). Data were acquired by using an Agilent Zorbax SB-C18 column (3.0 × 150 mm, 5 μm) as described previously."}, "[4]": {"system": "AML12 cells", "type": "cell-based, mouse", "description": "as §2"}, "[5]": {"system": "cardiac tissues of DOX-induced CHF rats", "assay": "Heart histopathology (H&E, Masson) and TUNEL apoptosis detection", "type": "in vivo, rat", "settings": "DOX group", "description": "Cardiac tissues were fixed in 4% paraformaldehyde, embedded in paraffin, and sectioned at 4–5 μm thickness. Hematoxylin and eosin (H&E) staining was performed to assess histopathological changes, while Masson’s trichrome staining was used to evaluate cardiac fibrosis. Apoptosis in cardiac tissues was detected using a TUNEL assay kit (C1088, Beyotime, Shanghai, China)."}, "[6]": {"system": "heart tissues", "assay": "Transmission electron microscopy of heart tissue", "type": "in vivo, rat", "settings": "experiment II; DOX alone, co-treatments vs DOX", "description": "Freshly excised heart tissues were immediately fixed in 2.5% glutaraldehyde at 4 °C overnight. After washing with 0.1 M cacodylate trihydrate buffer, samples were post-fixed with 1% osmium tetroxide for 1 h. Tissues were then dehydrated through a graded ethanol series, incubated in acetone, and embedded in epoxy resin. Ultrathin sections were mounted on copper grids and imaged using a Hitachi HT7800 transmission electron microscope (Tokyo, Japan)."}, "[7]": {"system": "urinary metabolites of DOX-induced CHF rats", "assay": "Urine metabolomics (UHPLC-Q-TOF/MS)", "type": "in vivo, rat", "description": "Urine samples (200 μL) were mixed with 200 μL of protein precipitant (methanol: acetonitrile, 1:1) and vortexed for 30 s at 4 °C. Samples were sonicated for 10 min in an ice bath, then incubated at – 20 °C for 1 h. After centrifugation at 13,000 rpm for 15 min at 4 °C, 200 μL of supernatant was transferred to sample vials for analysis. A pooled quality control (QC) sample was prepared by combining 10 μL of supernatant from each sample. Sample analysis was performed using a Waters H-Class UPLC system coupled to a Triple TOF 6600 mass spectrometer (AB SCIEX, USA). Chromatographic separation was achieved on an ACQUITY UPLC HSS T3 column (2.1 × 100 mm, 1.7 μm; Waters) using 0.1% formic acid in water (mobile phase A) and acetonitrile (mobile phase B). […] Mass spectrometry was performed in both positive and negative ionization modes. Key parameters included: ion spray voltage, 5500/− 4500 V; m/z range, 60–1000; gas 1 and 2, 60 psi; curtain gas, 35 psi; accumulation time, 1.2 s; source temperature, 550 °C; declustering potential, 60 V. Information-dependent acquisition (IDA) was used with the following settings: m/z range, 50–1000; accumulation time, 0.05 s; collision energy, 40 ± 20 V. Data processing was performed using XC-MS plus software for peak alignment, extraction, and normalization. Metabolite identification was carried out using the MetDNA database. Multivariate statistical analysis, including principal component analysis (PCA) and orthogonal partial least squares discriminant analysis (OPLS-DA), was conducted using MetaboAnalyst 5.0. Differential metabolites were identified based on variable importance in projection (VIP) scores > 1.0 and P < 0.05. Fold change (FC) values were used to determine up- or down-regulation. Metabolic pathway analysis was performed using MetaboAnalyst 5.0, with significance set at P < 0.05."}, "[8]": {"system": "gut microbiota", "assay": "16S rRNA sequencing of gut microbiota", "type": "in vivo, rat", "settings": "DOX group vs CON group", "description": "16S rRNA sequencing and bioinformatics analysis were performed by OEbiotech Co. Ltd. (Shanghai, China). Total genomic DNA was extracted from cecal contents. The V3–V4 hypervariable region of the 16S rRNA gene was amplified using primers 343F and 798R. Clean reads were processed to remove primer sequences and clustered into operational taxonomic units (OTUs) at 97% similarity using Vsearch software. OTUs were annotated by comparison against the […]. Alpha diversity was assessed using the Simpson index. Beta diversity was evaluated using Bray–Curtis distances and visualized by principal coordinates analysis (PCoA). Differential abundance analysis of gut microbiota associated with DOX-induced CHF was performed using linear discriminant analysis effect size (LEfSe) and random forest algorithms."}},
  "data": [
    {"smiles": "COc1cccc2c1C(=O)c1c(O)c3c(c(O)c1C2=O)C[C@@](O)(C(=O)CO)C[C@@H]3O[C@H]1C[C@H](N)[C@H](O)[C@H](C)O1", "note": "[DOX, Doxorubicin]", "values": [
      {"measurement": "phenylalanine levels in AML12 cells", "setting": "[1]", "result": "significant increases"},
      {"measurement": "phenylalanine metabolism (Phe level, Phe/Tyr ratio)", "setting": "[1]; AML12 cells, DOX vs CON, neomangiferin vs DOX, dose-dependent", "result": "significantly suppressed"},
      {"measurement": "serum ALT and AST levels", "setting": "[2]", "result": "increased"},
      {"measurement": "phenylalanine levels in hepatic and cardiac tissues and plasma", "setting": "[3]", "result": "significant elevation"},
      {"measurement": "MDA levels", "setting": "[4]", "result": "increase"},
      {"measurement": "SOD activity", "setting": "[4]", "result": "significant reduction"},
      {"measurement": "H&E and Masson's trichrome staining of cardiac tissue", "setting": "[5]", "result": "inflammatory infiltration and increased collagen deposition"},
      {"measurement": "mitochondrial ultrastructure of heart (electron microscopy)", "setting": "[6]", "result": "mitochondrial shrinkage, increased membrane density, and marked reduction and shortening of cristae with focal vacuolization"},
      {"measurement": "urinary levels of 4-(2-aminophenyl)-2,4-dioxobutanoate, hippurate, phenylacetylglycine, 5-methoxyindoleacetate, phenylpyruvate, and phenylalanine", "setting": "[7]; DOX group vs CON group", "result": "significantly increased"},
      {"measurement": "urinary levels of indole-3-acetaldehyde, urea, anthranilate, indoleacetic acid, tryptamine, N-acetyl-L-glutamate, tyrosine, and glutamate", "setting": "[7]; DOX group vs CON group", "result": "significantly decreased"},
      {"measurement": "urinary phenylalanine level", "setting": "[7]; day 10 after DOX administration, P < 0.001", "result": "sharp increase"},
      {"measurement": "Muribaculaceae abundance", "setting": "[8]", "result": "decreased"},
      {"measurement": "relative abundance of Proteobacteria", "setting": "[8]; p < 0.01", "result": "significantly increased"}
    ]}
  ]
}
